Patent US20220259235A1, “EGFR Inhibitor, Composition, and Preparation Method Therefor” (BETTA PHARMACEUTICALS CO., LTD, priority 2019, published 2022)

Tests used:
Ba/F3-L858R/T790M/C797S = Ba/F3-L858R/T790M/C797S (Homo sapiens, UniProt P00533, T790M/C797S/L858R, cells depend on it); test: Ba/F3-L858R/T790M/C797S cell proliferation assay (CellTiter Glo, 72 h); type: cell-based; settings: CTG, numeric values, read-out: BaF3 L858R/T790M/C797S IC50
Outline: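 Cells seeded at 2000/well and exposed 72 h to compound at 1000 to 0.2 nM (0.1% DMSO). Viability read by CellTiter-Glo luminescence; IC50 from four-parameter nonlinear regression of signal vs. log concentration.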

[1] = Liver microsomal clearance test, mice; type: in vitro ADME; settings: Mice liver microsomes, 0.5 mg/mL, NADPH
Procedure: (§1) Test 3 Liver Microsomal Clearance Test
(§2) 1. Prepare 0.5 mg/mL liver microsome diluent containing K-butter and MgCl2:
(§3) 2.1 Take 356 μL of the liver microsome diluent prepared above and add it to the preset wells of the incubation plate, the number of multiple wells n=1, mark it as the incubation plate.
(§4) 2.2 Take 4 μL of the positive control compound Verapamil (50 μM) and the working solution of the test compound (200 μM) into the above incubation plate containing 356 μL of liver microsome diluent, and mix well (The dilution solvent from the stock solution to the working solution is a mixed solvent of acetonitrile: methanol: water=1:1:2, and the final concentration of DMSO is ≤0.5%),
(§5) 2.3 Place the incubation plate in a 37° C. thermostatic oscillator (at shaking speed of 100 rpm) for pre-incubation with 10 min.
(§6) 2.4 Add 40 μL of 10 mM NADPH (add 40 μL of K-buffer to the wells without NADPH) to each reaction well to start the reaction and start timing.
(§7) 3. Sample collection and treatment:
(§8) 3.1 After adding NADPH to start the reaction, immediately take out 50 μL of the sample and add it to the precipitation plate pre-added with 400 μL of stop solution, and shake on an oscillator at 600 rpm for 5 min at room temperature as a 0 min sample.
(§9) 3.2 At the predetermined time points of 5 min, 15 min and 45 min, take out 50 μL of sample from the incubation plate and add it to the precipitation plate. The subsequent steps were the same as the treatment of 0 min sample. 3.3 After balancing, centrifuge above precipitation plate at 3200 rpm for 10 min at 4° C.
(§10) 3.4 Take 50 μL of the supernatant after centrifugation and add it to pre-added 20% acetonitrile water at appropriate proportion, shake on an oscillator at 600 rpm for 2 min at room temperature, mix well, and put it into the LC-MS/MS sampler for sample injection.
(§11) Analysis of Experimental Data
1. […]

[2] = Liver microsomal clearance test, human; type: in vitro ADME; settings: Human liver microsomes, 0.5 mg/mL, NADPH
Procedure: as §1, §2, §3, §4, §5, §6, §7, §8, §9, §10, §11
1. […]

Sequence of Ba/F3-L858R/T790M/C797S (P00533 whole entry T790M/C797S/L858R): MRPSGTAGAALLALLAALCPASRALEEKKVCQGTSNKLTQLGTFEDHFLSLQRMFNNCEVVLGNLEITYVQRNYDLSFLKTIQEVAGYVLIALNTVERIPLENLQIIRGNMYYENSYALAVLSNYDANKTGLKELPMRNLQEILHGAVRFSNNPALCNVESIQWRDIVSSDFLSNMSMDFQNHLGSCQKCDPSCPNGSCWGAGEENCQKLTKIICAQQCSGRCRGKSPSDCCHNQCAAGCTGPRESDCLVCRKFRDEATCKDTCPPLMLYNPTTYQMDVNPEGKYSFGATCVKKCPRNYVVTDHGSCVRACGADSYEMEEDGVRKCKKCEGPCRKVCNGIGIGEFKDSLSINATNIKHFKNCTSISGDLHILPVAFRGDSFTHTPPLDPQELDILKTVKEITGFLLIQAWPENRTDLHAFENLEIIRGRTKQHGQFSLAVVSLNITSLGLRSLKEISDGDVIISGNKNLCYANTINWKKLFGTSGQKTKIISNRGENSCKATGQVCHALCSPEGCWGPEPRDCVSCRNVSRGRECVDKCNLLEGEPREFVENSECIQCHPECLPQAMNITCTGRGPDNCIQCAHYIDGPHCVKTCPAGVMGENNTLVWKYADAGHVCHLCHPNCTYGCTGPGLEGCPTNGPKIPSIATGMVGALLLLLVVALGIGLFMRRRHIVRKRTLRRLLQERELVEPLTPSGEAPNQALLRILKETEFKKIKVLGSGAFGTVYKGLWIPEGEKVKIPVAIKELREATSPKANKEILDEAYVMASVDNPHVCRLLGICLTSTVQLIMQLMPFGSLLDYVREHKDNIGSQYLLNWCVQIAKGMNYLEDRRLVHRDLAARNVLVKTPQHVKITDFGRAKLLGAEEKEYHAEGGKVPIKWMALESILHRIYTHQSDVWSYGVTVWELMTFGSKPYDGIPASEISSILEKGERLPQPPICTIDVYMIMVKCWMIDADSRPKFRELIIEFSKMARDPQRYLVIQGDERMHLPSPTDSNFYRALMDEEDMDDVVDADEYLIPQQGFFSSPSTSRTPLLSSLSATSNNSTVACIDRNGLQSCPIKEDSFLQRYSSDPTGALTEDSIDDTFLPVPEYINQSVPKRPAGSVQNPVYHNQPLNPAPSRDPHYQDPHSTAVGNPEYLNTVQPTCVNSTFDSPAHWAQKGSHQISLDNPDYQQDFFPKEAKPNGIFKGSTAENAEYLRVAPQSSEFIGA

Compound: COc1cc(N2CCC(N3CCN(C)CC3)CC2)c(-c2cnn(C)c2)cc1Nc1ncc(Cl)c(Nc2ccc3nccnc3c2P(C)(C)=O)n1 [Compound 1, (6-((5-Chloro-2-((2-methoxy-5-(1-methyl-1hydro-pyrazol-4-yl)-4-(4-(4-methylpiperazine-1-yl)piperidin-1-yl)phenyl)amino)pyrimidin-4-yl)amino)quinoxalin-5-yl)dimethylphosphine oxide]
- GI50 (Ba/F3-L858R/T790M/C797S): 2.1 nM
- Instrinsic clearance of liver microsomal protein, CLint [1]: 6.6 μL/min/mg proteins
- Instrinsic clearance of liver microsomal protein, CLint [2]: 2.4 μL/min/mg proteins
